Source: ChEMBL document CHEMBL5346930, “Discovery of novel N-benzylarylamide-dithiocarbamate based derivatives as dual inhibitors of tubulin polymerization and LSD1 that inhibit gastric cancers” (Eur J Med Chem, 2023)
Activity calls are given as the source filed them. The calls are words filed in the database; no cut-off is given here.

Tests used:
[1] = system: MCF7; assay: Antiproliferative activity against human MCF7 cells assessed as inhibition of cell growth incubated for 48 hrs by MTT assay; type: functional, cell-based; details: MCF7, 48 h
[2] = system: SGC-7901; assay: Induction of apoptosis in human SGC-7901 cells assessed as activation of caspase-7 at 0 to 30 nmol/L incubated for 48 hrs by Western blot analysis; type: functional, cell-based; details: dose 0-30 nmol/L
[3] = system: SGC-7901; assay: Antiproliferative activity against human SGC-7901 cells assessed as inhibition of cell growth incubated for 48 hrs by MTT assay; type: functional, cell-based; details: SGC-7901, 48 h
[4] = system: SGC-7901; assay: Inhibition of cell migration in human SGC-7901 cells assessed as reduction in rate of wound healing at 4 nmol/L measured after 0 to 48 hrs; type: functional, cell-based; details: time 0-48 hrs
[5] = system: MGC-803; assay: Induction of morphological changes in human MGC-803 cells assessed as varied size of nucleus at 0 to 24 nmol/L incubated for 48 hrs by DAPI staining based analysis; type: functional, cell-based; details: dose 0-24 nmol/L
[6] = Hepatotoxicity in BALB/c nude mouse xenografted with human MGC-803 cells assessed as effect on ALT level at 25 mg/kg/day, ip administered every day for 21 days; type: toxicity, organism-based; details: in vivo, 504 h, time 21 day
[7] = system: MGC-803; assay: Induction of apoptosis in human MGC-803 cells assessed as increase in cleaved PARP level at 0 to 24 nmol/L incubated for 48 hrs by Western blot analysis; type: functional, cell-based; details: dose 0-24 nmol/L
[8] = target: T1, Lysine-specific histone demethylase 1A (Homo sapiens, UniProt O60341); assay: Inhibition of LSD1 in human MGC-803 cells assessed as increase in H3K4me2 expression level at 0 to 24 nmol/L incubated for 48 hrs by Western blot analysis; type: cell-based; details: dose 0-24 nmol/L
[9] = system: MGC-803; assay: Induction of morphological changes in human MGC-803 cells assessed as appearance of oblate and bright cells at 0 to 24 nmol/L incubated for 48 hrs by bright field microscopic analysis; type: functional, cell-based; details: dose 0-24 nmol/L
[10] = system: SGC-7901; assay: Induction of DNA damage in human SGC-7901 cells assessed as DNA fragmentation by measuring increase in comet tails by fluorescence microscope based comet assay; type: functional, cell-based; details: dose 0-30 nmol/L
[11] = system: SGC-7901; assay: Induction of apoptosis in human SGC-7901 cells assessed as increase in cleaved caspase-3 level at 0 to 30 nmol/L incubated for 48 hrs by Western blot analysis; type: functional, cell-based; details: dose 0-30 nmol/L
[12] = target: Tubulin; assay: Inhibition of tubulin polymerization (unknown origin) assessed as reduction in fluorescence intensity measured every 60 secs for 1 hr by microplate reader analysis; type: protein-complex assay, Homo sapiens
[13] = system: TE-1; assay: Antiproliferative activity against human TE-1 cells assessed as inhibition of cell growth incubated for 48 hrs by MTT assay; type: functional, cell-based; details: TE-1, 48 h
[14] = target: Tubulin beta (Homo sapiens) (UniProt P68371+Q9H4B7+Q13509+P04350+Q3ZCM7+P07437+Q13885+Q9BVA1+Q9BUF5+A6NNZ2); assay: Binding affinity to colchicine binding site of beta-tubulin in human MGC-803 cells assessed as inhibition of beta-tubulin alkylation by measuring disappearance of beta-tubulin-EBI adduct band pretreated for 2 hrs followed by EBI addition and measured after 2 hrs by Western blot analysis; type: cell-based; details: dose 0-10 µM, time 4.0 hrs
[15] = target: T1, Lysine-specific histone demethylase 1A; assay: Inhibition of LSD1 in human MGC-803 cells assessed as increase in H3K4me1 expression level at 0 to 24 nmol/L incubated for 48 hrs by Western blot analysis; type: cell-based; details: dose 0-24 nmol/L
[16] = system: MGC-803; assay: Induction of cell cycle arrest in human MGC-803 cells assessed as reduction in CDC2 phosphorylation at Thr161 residue at 0 to 24 nmol/L incubated for 48 hrs by Western blot analysis; type: functional, cell-based; details: dose 0-24 nmol/L
[17] = system: SGC-7901; assay: Induction of apoptosis in human SGC-7901 cells assessed as increase in total apoptotic cells incubated for 48 hrs by Annexin-FITC/PI staining based flow cytometry analysis; type: functional, cell-based; details: dose 0-30 nmol/L
[18] = system: MGC-803; assay: Induction of morphological changes in human MGC-803 cells assessed as appearance of bright and shrunken nucleus at 0 to 24 nmol/L incubated for 48 hrs by DAPI staining based analysis; type: functional, cell-based; details: dose 0-24 nmol/L
[19] = system: SGC-7901; assay: Induction of morphological changes in human SGC-7901 cells assessed as appearance of oblate and bright cells at 0 to 30 nmol/L incubated for 48 hrs by bright field microscopic analysis; type: functional, cell-based; details: dose 0-30 nmol/L
[20] = system: SGC-7901; assay: Induction of apoptosis in human SGC-7901 cells assessed as activation of caspase-3 at 0 to 30 nmol/L incubated for 48 hrs by Western blot analysis; type: functional, cell-based; details: dose 0-30 nmol/L
[21] = system: SGC-7901; assay: Induction of cell cycle arrest in human SGC-7901 cells assessed as downregulation of CDC2 protein expression incubated for 48 hrs by Western blot analysis; type: functional, cell-based; details: dose 0-30 nmol/L
[22] = system: KYSE-450; assay: cells; details: Homo sapiens, KYSE-450, 48 h
Description: Antiproliferative activity against human KYSE-450 cells assessed as inhibition of cell growth incubated for 48 hrs by MTT assay

[23] = system: MGC-803; assay: Induction of apoptosis in human MGC-803 cells assessed as increase in cleaved caspase-7 level at 0 to 24 nmol/L incubated for 48 hrs by Western blot analysis; type: functional, cell-based; details: dose 0-24 nmol/L
[24] = system: MGC-803; assay: Induction of morphological changes in human MGC-803 cells assessed as appearance of broken nucleus at 24 nM incubated for 48 hrs by DAPI staining based analysis; type: functional, cell-based
[25] = system: SGC-7901; assay: Inhibition of cell migration in human SGC-7901 cells assessed as reduction in number of cells crossing membrane at 4 nmol/L measured after 48 hrs by transwell assay; type: functional, cell-based
[26] = system: MGC-803; assay: Induction of apoptosis in human MGC-803 cells assessed as downregulation of Mcl-1 protein expression incubated for 48 hrs by Western blot analysis; type: functional, cell-based; details: dose 0-24 nmol/L
[27] = target: T1, Lysine-specific histone demethylase 1A; assay: Inhibition of recombinant LSD1 (unknown origin) using H3K4me2 peptide as substrate preincubated for 10 mins followed by substrate addition and measured after 30 mins by amplex red based fluorescence microplate reader analysis
[28] = system: PC-3; assay: Antiproliferative activity against human PC-3 cells assessed as inhibition of cell growth incubated for 48 hrs by MTT assay; type: functional, cell-based; details: PC-3, 48 h
[29] = system: SGC-7901; assay: Induction of apoptosis in human SGC-7901 cells assessed as downregulation of Bcl-2 protein expression incubated for 48 hrs by Western blot analysis; type: functional, cell-based; details: dose 0-30 nmol/L
[30] = system: HCT-116; assay: cells; details: Homo sapiens, HCT-116, 48 h
Description: Antiproliferative activity against human HCT-116 cells assessed as inhibition of cell growth incubated for 48 hrs by MTT assay

[31] = system: MGC-803; assay: cells; details: Homo sapiens, MGC-803, 48 h
Description: Antiproliferative activity against human MGC-803 cells assessed as inhibition of cell growth incubated for 48 hrs by MTT assay

[32] = system: A549; assay: Antiproliferative activity against human A549 cells assessed as inhibition of cell growth incubated for 48 hrs by MTT assay; type: functional, cell-based; details: A549, 48 h
[33] = Nephrotoxicity in BALB/c nude mouse xenografted with human MGC-803 cells assessed as effect on creatinine level at 25 mg/kg/day, ip administered every day for 21 days; type: toxicity, organism-based; details: in vivo, 504 h, time 21 day
[34] = system: MGC-803; assay: Induction of DNA damage in human MGC-803 cells assessed as DNA fragmentation by measuring increase in comet tails by fluorescence microscope based comet assay; type: functional, cell-based; details: dose 0-24 nmol/L
[35] = system: MGC-803; assay: Induction of apoptosis in human MGC-803 cells assessed as activation of caspase-3 at 0 to 24 nmol/L incubated for 48 hrs by Western blot analysis; type: functional, cell-based; details: dose 0-24 nmol/L
[36] = system: SGC-7901; assay: Induction of cell cycle arrest in human SGC-7901 cells assessed as reduction in cyclin B1 protein expression incubated for 48 hrs by Western blot analysis; type: functional, cell-based; details: dose 0-30 nmol/L

- IC50 [1]: 34.4 nM
- IC50 [3]: 19.5 nM
- inhibition [8]: Active
- IC50 [12]: 3060 nM
- Activity [14]: Dose-Dependent Effect
- inhibition [15]: Active
- IC50 [22]: 30 nM
- IC50 [27]: 2810 nM
- IC50 [28]: 44.6 nM
- IC50 [30]: 44 nM
- IC50 [31]: 17 nM
- IC50 [32]: 254 nM
SMILES: COc1ccc(CN(C(=O)CSC(=S)N2CCN(c3ccc(N)cc3)CC2)c2cc(OC)c(OC)c(OC)c2)cc1O
- Activity [2]: Active
- inhibition [4]: Active
- Activity [5]: Active
- Activity [6]: Non-Toxic
- Activity [7]: Active
- Activity [9]: Active
- Activity [10]: Dose-Dependent Effect
- Activity [11]: Active
- IC50 [13]: 31.4 nM
- Activity [16]: Active
- Activity [17]: Dose-Dependent Effect
- Activity [18]: Active
- Activity [19]: Active
- Activity [20]: Active
- Activity [21]: Dose-Dependent Effect
- Activity [23]: Active
- Activity [24]: Active
- inhibition [25]: Active
- Activity [26]: Dose-Dependent Effect
- Activity [29]: Dose-Dependent Effect
- Activity [33]: Non-Toxic
- Activity [34]: Dose-Dependent Effect
- Activity [35]: Active
- Activity [36]: Dose-Dependent Effect
